# Test results: US20250302863A1, “USE OF THBS1 INHIBITOR FOR OVERCOMING DRUG RESISTANCE IN CANCER” (KOREA ADVANCED INSTITUTE OF SCIENCE AND TECHNOLOGY, priority 2022, published 2025)
# Experiments:
# Format in all cases: cell-based, Human
# THBS1 mRNA = test: THBS1 knockdown by shRNA, mRNA level by qRT-PCR; settings: lentiviral shRNA, FIG. 8A
# Procedure: HEK 293T cells were used to transfect shRNA targeting THBS1 and an overexpression vector. In addition to shRNA (shTHBS1; […]; SEQ ID NO: 1) and an overexpression vector (pDNA (VB220725-1808zjh); […]. Infected cells were selected using 1 μg/ml of puromycin for at least one week.
# (§1) Total RNA was extracted from cells using a total RNA extraction kit from Intron Biotechnology. Genomic DNA was removed by treatment with RNase-free DNase I. Complementary DNA (cDNA) was synthesized using a DiaStar RT kit of Solgent. In addition, RT-PCR was performed using Veriti 96-well Thermal Cycler of Applied Biosystems, and real-time polymerase chain reaction (qRT-PCR) was performed using a QuantStudio 5 real-time PCR system, an SYBR master mix (Genet Bio), and primers.
# At this time, when NCI-H1792 and NCI-H1793 cell lines, lung cancer cell lines with drug resistance to APR-246, were treated with THBS1-targeting shRNA (SEQ ID NO: 1; […]) as a THBS1 inhibitor, the THBS1 mRNA expression level was reduced (FIG. 8A). In addition, when THBS1 was overexpressed in NCI-H2009 and HCC827, lung cancer cell lines with high drug responsiveness to APR-246, it was confirmed that the THBS1 mRNA expression level was increased (FIG. 8B).
# THBS1 = THBS1 expression after TGF-beta pathway activation in sensitive cell lines; settings: two sensitive cell lines, 5 ng/ml TGFβ1 24 hours after seeding, harvested 24 hours later, FIGS. 10D and 10E
# Procedure: (§2) Dimethyl sulfoxide (DMSO) was purchased from Sigma-Aldrich and was used as a drug control. APR-246 and TGFβ1 protein were purchased from MedChemExpress (MCE). APR-246 was used by diluting 25 mg to a final concentration of 10 mM, and the cells were treated for 4 to 5 days when checking the cell viability and for 24 hours when performing a Western blot experiment. In addition, TGFβ1 at a concentration of 10 μg/ml was a TGF-beta pathway activator, and drug-sensitive cell lines were seeded and treated with 5 ng/ml of TGFβ1 24 hours later, and the cells were harvested 24 hours later.
# as §1
# TGFβ1 mRNA = TGFβ1 mRNA expression after TGF-beta pathway activation in sensitive cell lines; settings: two sensitive cell lines, 5 ng/ml TGFβ1 24 hours after seeding, harvested 24 hours later, FIGS. 10D and 10E
# Procedure: as §2, §1
# HCC827 = test: Cell viability by APR-246 treatment concentration (IncuCyte, crystal violet); settings: HCC827 p53-mutant lung cancer cells, 4 to 5 days, FIG. 7B
# Procedure: (§3) Human lung cancer cell lines NCI-H1793, NCI-H2009, and HCC827 were purchased from the Korea Cell Line Bank (KCLB), and NCI-H1792 was purchased from the American Type Culture Collection (ATCC). NCI-H1793 and HCC827 were cultured in a RPMI 1640 medium supplemented with 10% fetal bovine serum (FBS) and antibiotics (100 U/ml penicillin, 100 μg/ml of streptomycin, and 0.25 μg/ml of Fungizone). NCI-H1792 and NCI-H2009 were cultured with the same supplements in a DMEM medium. All the cell lines were cultured at 37° C. in an incubator containing 5% carbon dioxide.
# as §2
# (§4) Cells were seeded in a 96-well plate at 3 to 5×10^3 cells per well. A drug was then treated within 24 hours after seeding. After drug treatment, cell growth was recorded every 3 hours using IncuCyte ZOOM for 4 to 5 days. Cell viability was analyzed using IncuCyte ZOOM 2016A software. After 4 to 5 days, the cells were stained with 1% crystal violet for 30 minutes at room temperature and washed with distilled water to confirm the amount of viable cells.
# (§5) The present inventors confirmed the cell viability according to the APR-246 drug treatment concentration for lung cancer cell lines NCI-H1793, NCI-H1792, HCC827, and NCI-H2009, which were known to have p53 mutations. At this time, APR-246 drug-sensitive cell lines and resistant cell lines were distinguished based on z-score normalized IC50 values.
# NCI-H1792 = test: as above; settings: NCI-H1792 p53-mutant lung cancer cells, 4 to 5 days, FIG. 7A
# Procedure: as §3, §2, §4, §5
# NCI-H1793 = test: as above; settings: NCI-H1793 p53-mutant lung cancer cells, 4 to 5 days, FIG. 7A
# Procedure: as §3, §2, §4, §5
# NCI-H2009 = test: as above; settings: NCI-H2009 p53-mutant lung cancer cells, 4 to 5 days, FIG. 7B
# Procedure: as §3, §2, §4, §5
molecule,measurement,setting,value
"THBS1-targeting shRNA: short hairpin RNA targeting THBS1, GTAGGTTATGATGAGTTTAAT (SEQ ID NO: 1), delivered by lentivirus (guide GUAGGUUAUGAUGAGUUUAAU)",THBS1 mRNA expression level,THBS1 mRNA; NCI-H1792 cells,reduced
same,THBS1 mRNA expression level,THBS1 mRNA; NCI-H1793 cells,reduced
"drug that activated the TGF-beta signaling pathway: TGFβ1 protein from MedChemExpress, used as TGF-beta pathway activator at 5 ng/ml",expression level of THBS1,THBS1,increased
same,mRNA expression level of TGFβ1,TGFβ1 mRNA,increased
COCC1(CO)C(=O)C2CCN1CC2 (centres unmarked) [APR-246],drug response (cell viability),HCC827,clear response
same,drug response (cell viability),NCI-H1792,hardly responded
same,drug response (cell viability),NCI-H1793,hardly responded
same,drug response (cell viability),NCI-H2009,clear response
